From paper PMC9415822, “Amphotericin B-PEG Conjugates of ZnO Nanoparticles: Enhancement Antifungal Activity with Minimal Toxicity” (Pharmaceutics, 2022)
≈ marks a conversion by molar mass, not a printed value.

Columns and labels:
[1] = tested on: Male Wistar rats; assay: In vivo toxicity: hematological parameters after injection; design: species or system rat; conditions: 10 mg/kg intraperitoneal for seven days, blood on eighth day
Experimental: (§1) Male Wistar rats weighing 180–220 g were used in this study. The animals were housed in rooms with controlled temperature (23 ± 1 °C) and relative humidity (55 ± 5%) and were allowed free access to water and food during acclimatization. Animals were fasted for 24 h before the experiments but could drink water ad libitum. The animal study protocol was approved by the Ethical Committee, Pharmacy College, Prince Sattam Bin Abdulaziz University, Al-Kharj, KSA (approval number: PHARM-11-10-2021).
(§2) Blood parameters including count of leucocytes (WBC) and red blood cell (RBC), and hemoglobin concentration (Hb), and hemocrit percentage were employed to evaluate the hematological toxicity associated with AMB. Furthermore, the kidney functions were assessed by measuring blood urea nitrogen (BUN) and serum creatinine. Hepatic functions were evaluated by the measure of aspartate transaminase (AST) and alanine transaminase (ALT). Four groups of male Wistar rats, each composed of 5 rats weighing approximately 200 g were used in this study. Three groups were intraperitoneally injected with free AMB, ZnO-AMB or ZnO-AMB-PEG (10 mg/kg body weight) for a continuous seven days. The fourth group was left uninjected as control group. On the eighth day, all rats were anesthetized and euthanized by decapitation for hematological and biochemical assays.

[2] = tested on: Male Wistar rats; assay: In vivo toxicity: biochemical parameters (kidney and liver functions) after injection; design: species or system rat; conditions: 10 mg/kg intraperitoneal for seven days, eighth day
Experimental: as §1, §2

[3] = tested on: Cryptococcus neoformans ATCC 90112; assay: In vitro antifungal assay, broth microdilution (MIC/MFC), C. neoformans; format: cell-based
Experimental: The broth microdilution method was used to assess the antifungal susceptibility of free AMB, and ZnO, ZnO-AMB, and ZnO-AMB-PEG nanoparticles against Candida albicans ATCC 64548 and Cryptococcus neoformans ATCC 90112 according to the Clinical Laboratory and Standards Institute Guidelines (CLSI, 2015). The nanoparticle solutions were serially diluted in sterile saline to obtain dilutions ranging from 5.0 to 0.00625 µg/mL. Aliquots (100 µL) from different dilutions of different preparations were transferred to the wells of 96-well microtiter plate. Fresh cultures of the tested strains were suspended in RPMI 1640 provided with L-glutamine and MOPS at pH 7.0 to prepare suspensions with a turbidity approximating that of 0.5 McFarland Standard. The fungal suspensions were diluted 1:100 with RPMI 1640 to obtain cell density of 1 × 10^5 CFU/mL. Of the prepared fungal suspensions, 100 µL was added to all dilutions of nanoparticle preparations. The microtiter plates were incubated at 37 °C for 24 h for C. albicans, and 48 h for C. neoformans. The minimum inhibitory concentration (MIC) was considered as the lowest concentration that inhibited the visible turbidity. […] The minimum fungicidal concentration (MFC) was determined according to [23].

[4] = tested on: Candida albicans ATCC 64548; assay: In vitro antifungal assay, broth microdilution (MIC/MFC), C. albicans; format: cell-based; conditions: ATCC64548, SDA plates, 37 °C, 48 h
Experimental: The broth microdilution method was used to assess the antifungal susceptibility of free AMB, and ZnO, ZnO-AMB, and ZnO-AMB-PEG nanoparticles against Candida albicans ATCC 64548 and Cryptococcus neoformans ATCC 90112 according to the Clinical Laboratory and Standards Institute Guidelines (CLSI, 2015). The nanoparticle solutions were serially diluted in sterile saline to obtain dilutions ranging from 5.0 to 0.00625 µg/mL. Aliquots (100 µL) from different dilutions of different preparations were transferred to the wells of 96-well microtiter plate. Fresh cultures of the tested strains were suspended in RPMI 1640 provided with L-glutamine and MOPS at pH 7.0 to prepare suspensions with a turbidity approximating that of 0.5 McFarland Standard. The fungal suspensions were diluted 1:100 with RPMI 1640 to obtain cell density of 1 × 10^5 CFU/mL. Of the prepared fungal suspensions, 100 µL was added to all dilutions of nanoparticle preparations. […] The minimum inhibitory concentration (MIC) was considered as the lowest concentration that inhibited the visible turbidity. The experiment was repeated six times and both positive control (inoculated fungi in broth without any addition) and negative control (sterile broth without fungi) were included in the experiment. The minimum fungicidal concentration (MFC) was determined according to [23].

MIC ([3]; ATCC90112, RPMI 1640, 37 °C, 48 h): 0.05 µg/mL (≈ 0.0541 µM)
Structure (SMILES): C[C@@H]1[C@H](O)[C@@H](C)/C=C/C=C/C=C/C=C/C=C/C=C/C=C/[C@H](O[C@@H]2O[C@H](C)[C@@H](O)[C@H](N)[C@@H]2O)C[C@@H]2O[C@](O)(C[C@@H](O)C[C@@H](O)[C@H](O)CC[C@@H](O)C[C@@H](O)CC(=O)O[C@H]1C)C[C@H](O)[C@H]2C(=O)O [AMB, Amphotericin B]
Hb [1]: 13.22 ± 0.95 g% | Hematocrit [1]: 37.01 ± 2.68% | RBCs [1]: 7.09 ± 0.61 ×10^6/μL | WBCs [1]: 17.90 ± 2.46 ×10^3/μL | Kidney Functions BUN [2]: 66.52 ± 12.46 mg% | Kidney Functions Creatinine [2]: 0.63 ± 0.11 mg% | Liver Functions ALT [2]: 100.49 ± 20.95 IU/L | Liver Functions AST [2]: 453.15 ± 120.19 IU/L | MFC ([3]; ATCC90112, SDA plates, 37 °C, 72 h): 0.4 µg/mL (≈ 0.433 µM) | MFC [4]: 0.6 µg/mL (≈ 0.649 µM)
